# pIC50: −log10 of the molar value.
# Tests used:
# [1] = tested on: RKO (RKOp27) human colon adenocarcinoma cells; assay: Alamar Blue cell viability assay, anti-proliferative/cytotoxic activity on proliferating (uninduced) RKO p27 cells; format: cell-based; settings: RKOp27, 72 h, proliferating cells without inducer Ponasterone A
# Method: The anti-proliferative/cytotoxic activity of the compounds described herein, can be tested on subclones of RKO (RKOp27) human colon adenocarcinoma cells (Schmidt et al., Oncogene 19, 2423-2429; 2000) using the Alamar Blue cell viability assay (described in O'Brien et al. Eur J Biochem 267, 5421-5426, 2000). The compounds are dissolved as 20 mM solutions in dimethylsulfoxide (DMSO) and subsequently diluted in semi-logarithmic steps. DMSO dilutions are further diluted 1:100 into Dulbecco's modified Eagle's medium (DMEM) containing 10% fetal calf serum to a final concentration twice as much as the final concentration in the test. RKO subclones are seeded into 96 well flat bottom plates at a density of 4000 cells per well in a volume of 50 μl per well. 24 hours after seeding the 50 μl each of the compound dilutions in DMEM medium are added into each well of the 96 Well plate. Each compound dilution is tested as quadruplicates. Wells containing untreated control cells are filled with 50 μl DMEM medium containing 1% DMSO. The cells are then incubated with the substances for 72 hours at 37° C. in a humidified atmosphere containing 5% carbon dioxide. To determine the viability of the cells, 10 μl of an Alamar Blue solution (Biosource) are added and the fluorescence is measured at an extinction of 544 nm and an emission of 590 nm. For the calculation of the cell viability the emission value from untreated cells is set as 100% viability and the emission rates of treated cells are set in relation to the values of untreated cells. Viabilities are expressed as % values.
# The corresponding IC50 values of the compounds for anti-proliferative/cytotoxic activity are determined from the concentration-effect curves.
# Representative IC50 values for anti-proliferation/cytotoxicity determined in the mentioned assay follow from the following table A, in which the numbers of the compound correspond to the numbers of the examples.
# [2] = tested on: RKOp27 colon adenocarcinoma cells arrested by expression of ectopic p27Kip1; assay: Alamar Blue cell viability assay on RKO p27 cells arrested by Ponasterone A induced p27Kip1 (cell cycle specific mode of action); format: cell-based; settings: Homo sapiens, 72 hours, cells arrested by p27Kip1 induced with 10 μM Ponasterone A
# Method: To determine the cell cycle specific mode of action, subclones of RKO colon adenocarcinoma cells (RKOp27 or RKOp21 as described by Schmidt et al. in Oncogene 19, 2423-2429; 2000) are seeded into 96 well flat bottom plates at a density of 16000 cells per well in a volume of 50 μl per well in DMEM growth medium with 10% FCS containing 10 μM Ponasterone A. 24 hours after seeding the 50 μl each of the compound dilutions in DMEM medium are added into each well of the 96 Well plate. Each compound dilution is tested as quadruplicates. Wells containing untreated control cells are filled with 50 μl DMEM medium containing 1% DMSO. The cells are then incubated with the substances for 72 hours at 37° C. in a humidified atmosphere containing 5% carbon dioxide. To determine the viability of the cells, 10 μl of an Alamar Blue solution (Biosource) are added and the fluorescence was measured at an extinction of 544 nm and an emission of 590 nm. For the calculation of the cell viability the emission value from untreated cells is set as 100% viability and the emission rates of treated cells are set in relation to the values of untreated cells. Viabilities are expressed as % values. Viability is compared of proliferating cells grown in the absence of the inducer Ponasterone A, versus viability of cells arrested by the expression of ectopic p27Kip1 induced by Ponasterone A.
pIC50 [2],Compound,pIC50 [1]
< 4.00,"CCOC(=O)N1CCc2c(sc(NC(=O)C3CC3c3cc(C)ccc3OC)c2C#N)C1 (centres unmarked) [Example 54, 3-Cyano-2-({1-[2-(2-methoxy-5-methyl-phenyl)-cyclopropyl]-methanoyl}-amino)-4,7-dihydro-5H-thieno[2,3-c]pyridine-6-carboxylic acid ethyl ester]",5.70 to 6.52
< 4.00,"COc1ccc(OC)c(CCC(=O)Nc2sc3c(c2C#N)CCN(C(=O)OCCc2ccccn2)C3)c1 [Example 55, 3-Cyano-2-[3-(2,5-dimethoxy-phenyl)-propanoylamino]-4,7-dihydro-5H-thieno[2,3-c]pyridine-6-carboxylic acid 2-pyridin-2-yl-ethyl ester]",5.70 to 6.52
< 4.00,"COc1ccc(C)cc1CCC(=O)Nc1sc2c(c1C#N)CCN(C(=O)OCCN1CCOCC1)C2 [Example 56, 3-Cyano-2-[3-(2-methoxy-5-methyl-phenyl)-propanoylamino]-4,7-dihydro-5H-thieno[2,3-c]pyridine-6-carboxylic acid 2-morpholin-4-yl-ethyl ester]",5.70 to 6.52
≤ 4.40,"COc1ccc(C)cc1CCC(=O)Nc1sc2c(c1C#N)CCN(C(=O)OCc1cnccc1OC)C2 [Example 57, 3-Cyano-2-[3-(2-methoxy-5-methyl-phenyl)-propanoylamino]-4,7-dihydro-5H-thieno[2,3-c]pyridine-6-carboxylic acid 4-methoxy-pyridin-3-ylmethyl ester]",5.70 to 6.52
< 4.00,"COc1cccc(CCC(=O)Nc2sc3c(c2C#N)CCN(C(=O)OCCn2ccnc2)C3)c1 [Example 58, 3-Cyano-2-[3-(3-methoxy-phenyl)-propanoylamino]-4,7-dihydro-5H-thieno[2,3-c]pyridine-6-carboxylic acid 2-imidazol-1-yl-ethyl ester]",5.70 to 6.52
< 4.00,"COc1ccccc1CCC(=O)Nc1sc2c(c1C#N)CCN(C(=O)OCCc1cccnc1)C2 [Example 61, 3-Cyano-2-[3-(2-methoxy-phenyl)-propanoylamino]-4,7-dihydro-5H-thieno[2,3-c]pyridine-6-carboxylic acid 2-pyridin-3-yl-ethyl ester]",≥ 6.52
< 4.00,"COc1ccccc1CCC(=O)Nc1sc2c(c1C#N)CCN(C(=O)OCCc1ccncc1)C2 [Example 62, 3-Cyano-2-[3-(2-methoxy-phenyl)-propanoylamino]-4,7-dihydro-5H-thieno[2,3-c]pyridine-6-carboxylic acid 2-pyridin-4-yl-ethyl ester]",≥ 6.52
≤ 4.40,"COc1cccc(CCC(=O)Nc2sc3c(c2C#N)CCN(C(=O)OCCc2cccnc2)C3)c1 [Example 63, 3-Cyano-2-[3-(3-methoxy-phenyl)-propanoylamino]-4,7-dihydro-5H-thieno[2,3-c]pyridine-6-carboxylic acid 2-pyridin-3-yl-ethyl ester]",≥ 6.52
< 4.00,"COc1cccc(CCC(=O)Nc2sc3c(c2C#N)CCN(C(=O)OCCc2ccncc2)C3)c1 [Example 64, 3-Cyano-2-[3-(3-methoxy-phenyl)-propanoylamino]-4,7-dihydro-5H-thieno[2,3-c]pyridine-6-carboxylic acid 2-pyridin-4-yl-ethyl ester]",≥ 6.52
< 4.00,"COc1ccccc1CCC(=O)Nc1sc2c(c1C#N)CCN(C(=O)OCCn1ccnc1)C2 [Example 73, 3-Cyano-2-[3-(2-methoxy-phenyl)-propanoylamino]-4,7-dihydro-5H-thieno[2,3-c]pyridine-6-carboxylic acid 2-imidazol-1-yl-ethyl ester]",≥ 6.52
< 4.00,"COc1ccc(C)cc1CCC(=O)Nc1sc2c(c1C#N)CCN(C(=O)OCCc1ccncc1)C2 [Example 106, 3-Cyano-2-[3-(2-methoxy-5-methyl-phenyl)-propanoylamino]-4,7-dihydro-5H-thieno[2,3-c]pyridine-6-carboxylic acid 2-pyridin-4-yl-ethyl ester]",≥ 6.52
< 4.00,"COc1cccc(CCC(=O)Nc2sc3c(c2C#N)CCN(C(=O)OCc2nccn2C)C3)c1 [Example 119, 3-Cyano-2-[3-(3-methoxy-phenyl)-propanoylamino]-4,7-dihydro-5H-thieno[2,3-c]pyridine-6-carboxylic acid 1-methyl-1H-imidazol-2-ylmethyl ester]",≥ 6.52
≤ 5.00,"COc1ccccc1CCC(=O)Nc1sc2c(c1C#N)CCN(C(=O)OCc1nccn1C)C2 [Example 122, 3-Cyano-2-[3-(2-methoxy-phenyl)-propanoylamino]-4,7-dihydro-5H-thieno[2,3-c]pyridine-6-carboxylic acid 1-methyl-1H-imidazol-2-ylmethyl ester]",≥ 6.52
< 4.00,"COc1ccccc1CCC(=O)Nc1sc2c(c1C#N)CCN(C(=O)OCc1cncn1C)C2 [Example 123, 3-Cyano-2-[3-(2-methoxy-phenyl)-propanoylamino]-4,7-dihydro-5H-thieno[2,3-c]pyridine-6-carboxylic acid 3-methyl-3H-imidazol-4-ylmethyl ester]",≥ 6.52
≤ 5.00,"COc1ccccc1CCC(=O)Nc1sc2c(c1C#N)CCN(C(=O)OCCn1ccnc1C)C2 [Example 124, 3-Cyano-2-[3-(2-methoxy-phenyl)-propanoylamino]-4,7-dihydro-5H-thieno[2,3-c]pyridine-6-carboxylic acid 2-(2-methyl-imidazol-1-yl)-ethyl ester]",≥ 6.52
≤ 5.00,"COc1ccc(C)cc1CCC(=O)Nc1sc2c(c1C#N)CCN(C(=O)OCc1cncn1C)C2 [Example 130, 3-Cyano-2-[3-(2-methoxy-5-methyl-phenyl)-propanoylamino]-4,7-dihydro-5H-thieno[2,3-c]pyridine-6-carboxylic acid 3-methyl-3H-imidazol-4-ylmethyl ester]",5.70 to 6.52
≤ 4.40,"COc1ccc(C)cc1CCC(=O)Nc1sc2c(c1C#N)CCN(C(=O)OCCn1ccnc1C)C2 [Example 131, 3-Cyano-2-[3-(2-methoxy-5-methyl-phenyl)-propanoylamino]-4,7-dihydro-5H-thieno[2,3-c]pyridine-6-carboxylic acid 2-(2-methyl-imidazol-1-yl)-ethyl ester]",≥ 6.52
≤ 4.40,"COc1ccc(C)cc1CCC(=O)Nc1sc2c(c1C#N)CCN(C(=O)OCCn1ccnc1)C2 [Example 132, 3-Cyano-2-[3-(2-methoxy-5-methyl-phenyl)-propanoylamino]-4,7-dihydro-5H-thieno[2,3-c]pyridine-6-carboxylic acid 2-imidazol-1-yl-ethyl ester]",≥ 6.52
< 4.00,"COc1cccc(CCC(=O)Nc2sc3c(c2C#N)CCN(C(=O)OCCn2cnc(C)c2)C3)c1 [Example 142, 3-Cyano-2-[3-(3-methoxy-phenyl)-propanoylamino]-4,7-dihydro-5H-thieno[2,3-c]pyridine-6-carboxylic acid 2-(4-methyl-imidazol-1-yl)-ethyl ester]",≥ 6.52
< 4.00,"COc1ccccc1CCC(=O)Nc1sc2c(c1C#N)CCN(C(=O)OCC(=O)O)C2 [Example 153, 3-Cyano-2-[3-(2-methoxy-phenyl)-propanoylamino]-4,7-dihydro-5H-thieno[2,3-c]pyridine-6-carboxylic acid carboxymethyl ester]",5.70 to 6.52
< 4.00,"COc1ccc(C)cc1CCC(=O)Nc1sc2c(c1C#N)CCN(C(=O)OCC(=O)O)C2 [Example 155, 3-Cyano-2-[3-(2-methoxy-5-methyl-phenyl)-propanoylamino]-4,7-dihydro-5H-thieno[2,3-c]pyridine-6-carboxylic acid carboxymethyl ester]",5.70 to 6.52
< 4.00,"CCOc1ccccc1CCC(=O)Nc1sc2c(c1C#N)CCN(C(=O)OCC(=O)OC)C2 [Example 190, 3-Cyano-2-[3-(2-ethoxy-phenyl)-propanoylamino]-4,7-dihydro-5H-thieno[2,3-c]pyridine-6-carboxylic acid methoxycarbonylmethyl ester]",≥ 6.52
